According to patent US20260364213A1, “RADIOLABELED COMPOUNDS OF TRIMETHOPRIM AND USES THEREOF” (THE TRUSTEES OF THE UNIVERSITY OF PENNSYLVANIA, priority 2023, published 2026):
Several values for one entry are separate records, joined by “and”; a condition that tells them apart may be missing. Equal values may be shown once. Entries after “also recorded” stand apart in the source; their conditions may differ. Read-outs that look alike come from different tables or passages of the source.

Columns and labels:
I45 and SKOV3 cells = assay: Cytotoxicity in wild-type and eDHFR-YFP-expressing I45 and SKOV3 cells; assay type: cell-based, human
Procedure: After 72 hours of incubation, the surviving fraction of the cells was quantified using CellTiter-Glo (Promega #G9243). See, Makvandi, Molecular cancer therapeutics. […] The assay was performed three times in triplicates. […] See, Lee, Journal of nuclear medicine.

eDHFR [1] = target: T1, eDHFR (Escherichia coli, UniProt P0ABQ4); details: HEK293T-eDHFR-YFP vs HEK 293 WT; 0.037 MBq, 1 hour; 60 min
T1 sequence (P0ABQ4 1-159): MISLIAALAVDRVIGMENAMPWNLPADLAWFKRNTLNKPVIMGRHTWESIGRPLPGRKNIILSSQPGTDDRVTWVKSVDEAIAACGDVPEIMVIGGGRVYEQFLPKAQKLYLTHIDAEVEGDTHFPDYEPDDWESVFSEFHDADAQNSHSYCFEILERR

eDHFR-YFP = target: T2, eDHFR-YFP (Escherichia coli, UniProt P0ABQ4); assay: Radioligand binding to eDHFR-YFP expressing cells; set-up: species or system E. coli; details: read-out: Kd
T2 sequence (P0ABQ4 1-159): T1 sequence (P0ABQ4 1-159)
Procedure: Due to the high specific activity of [^211At]At-TMP that limits its working concentration to pM range, [^125I]I-TMP was used for saturation binding studies to determine Bmax.
eDHFR-YFP-positive I45 and SKOV3 cells were plated on 96-well plates (Corning #9102) at the density of 25,000 cells/well and 40,000 cells/well, respectively, in complete growth media 24 hours before the assay. […] After incubation at 37 °C for 90 minutes, the wells were aspirated and washed twice with ice-cold PBS. The radioactivity in each well was measured with a Perkin Elmer Wizard gamma counter. The assay was performed three times in triplicates. […] See, Swillens, Molecular pharmacology. 1995; 47(6):1197-203. The corresponding EC50 values were plotted against the receptor concentration/2 to determine the Kd. See, Hulme, British journal of pharmacology. 2010; 161(6):1219-37. The Bmax values were correlated with the total YFP florescence from the wells, with a correction factor of 2.5 and 2.2 for membrane-bound eDHFR-YFP in I45 and SKOV3, respectively, in order to account for decreased fluorescence per molecule from addition of the membrane localization signal to YFP. See, Wu, Science. 2005; 310(5746):310-4; and Bakholdina, Molecules. 2021; 26(13).
For determination of the Kd of [^211At]At-TMP, the binding assay protocol was repeated in I45 and SKOV3 cells expressing cytoplasmic eDHFR-YFP, using 150 μL of 0.06-60 nM [^125I]I-TMP±10 μM TMP for half of each 96-well plate and 50-260 μL of […] [^211At]At-TMP±10 μM TMP for the remaining half. The Bmax of each plate determined from [^125I]I-TMP binding was divided by the assay volumes used for [^211At]At-TMP to calculate the total receptor concentration ([RT]) in each [^211At]At-TMP well. The ligand depletion (δ) in each [^211At]At-TMP well was obtained by dividing the bound radioactivity by total added radioactivity. The assay was performed four times in triplicates. As derived in Supplemental Methods 1, δ^−1 was plotted against [RT]^−1 to determine the Kd as the slope of the linear best-fit line.
Supplemental Method 1. Measurement of the dissociation constant (Kd) of [^211At]At-TMP binding to eDHFR under non-saturating, ligand-depleting conditions. When [Ligand]<<Kd, ligand depletion (6) at equilibrium is
where [R] is the free receptor concentration and [RT]is the total receptor concentration. Since 6 is non-zero, taking the reciprocal of both sides of the equation yields
[formula] • If a δ^−1 vs. [RT]^−1 graph where y=δ^−1 and x=[RT]^−1 is plot,
Therefore, the slope of the linear best-fit line represents the Kd and the y-intercept is 1.

OVCAR8-eDHFR-Luc cells = assay: Kill assay (MTT) in OVCAR8-eDHFR-Luc cells; assay type: cell-based, human; details: 18.5 MBq, 1 h; viability to day 12
Procedure: Following the same uptake protocol till washing after the third wash the cells were counted using cell counter and they were diluted to generate even number of cells/mL. […] We've applied the same blocked conditions used in the uptake assay. […] Then cells will be re-distributed into 96 well plates (2,000 cells/well) with fresh media to monitor cell proliferation by MTT assay on days 1, 3, 7 and 10. A total of 9 wells (3×3) were measured on the plate per sample per time point. To complete the assay cell media was removed and replaced with 50 μL of serum free media and 50 μL of MTT reagent. The plates were covered with tin foil and incubated at 37 °C for 3 hours. The plates were shaken at 200 rpm at 37 °C for 15 min. Using the microplate plate reader, sample absorbance was measured at 590 nm for 600 ms. Controls included [^131I]NaI treated cells and blocking with 10 μM parent TMP (unlabeled). An analogous procedure was used for the OVCAR8-eDHFR-Luc kill assay with different doses (1.85-37 MBq) and treatment times.
To investigate the therapeutic potential of m[^131I]mI-TMP 5b in tumor cell lines, OVCAR8 eDHFR+ cells were exposed to varying doses (ranging from 1.85-37 MBq) of the radiotracer of 5b at different incubation times. Different conditions were employed to assess the selective therapeutic effect of the radio tracer on eDHFR+ cells. To determine the specific killing of eDHFR+ tumor cells, blocked conditions were analyzed. The cell viability of compound 5b-treated cells was also compared with the cells exposed to [^131I]I—Na. Additionally, untreated cells were used as controls. The MTT assay was used to measure the cell viability of the cells under the aforementioned conditions on days 1, 3, 7, and 12.
OVCAR8-eDHFR-Luc+ cells were treated with 1.85 and 18.5 MBq of m[^131I]mI-TMP 5b and [^131I]I—Na, incubated for 1 hour. […] The cell viability of the compound 5b-treated cells was similar to cells under blocked, [^131I]NaI, and no drug conditions. See, FIG. 2A. […] See, FIG. 2B. Based on the results obtained, a continued dose escalation was considered to better understand the therapeutic window. Finally, OVCAR_eDHFR+ cells were tested with 37 MBq dose of m[^131I]mI-TMP.

[2] = In vitro stability in RPMI 1640 medium; assay type: physicochemical; details: 37 °C, up to 6 hours, radio-HPLC
Procedure: The specific activity of [^211At]At-TMP and [^125I]I-TMP was determined by comparison of radioactivity to the area under 288-nm ultraviolet light peak on radio-HPLC. The in vitro stability of [^211At]At-TMP was examined with incubation in Roswell Park Memorial Institute (RPMI) 1640 medium at 37 °C for up to 6 hours, followed by radio-HPLC analysis.

IMR5 cells = assay: Cytotoxicity in IMR5 cells with subcellular eDHFR-YFP; assay type: cell-based, human
Procedure: Using standard cloning procedures and DNA sequence synthesis, the recombinant eDHFR protein was modified in the following ways. First, the eDHFR nucleotide sequence was extended with a yellow fluorescent protein (YFP) domain at the C-terminus to construct a fusion eDHFR-YFP protein. See, Sellmyer, Mol Ther 2020; 28:42-51. Then, one of the following localization domains was added: simian virus 40 nuclear localization signal (NLS) at the N-terminus, human immunodeficiency virus Rev protein nuclear export signal (NES) at the C-terminus, and Saccharolobus solfataricus P2 DNA-binding domain 7d (DNAB) at the N-terminus. See, Kobayashi, Antimicrob Agents Chemother 2006; 50:1118-1119; and Kalichuk, Sci Rep 2016; 6:37274. The resulting library of pUC57 plasmids, each containing one of NLS-eDHFR-YFP, eDHFR-YFP-NES, and DNAB-eDHFR-YFP, were successfully cloned into a lentiviral vector. The lentiviral plasmids were introduced into HEK293T cells for viral production and isolation.
Then, three human cancer cell lines were cultured: HCT116 (colorectal cancer), IMR5 (neuroblastoma), and SKOV3 (ovarian cancer). They were transfected with the three lentiviral constructs for expression of NLS-eDHFR-YFP, eDHFR-YFP-NES, and DNAB-eDHFR-YFP, resulting in nine cell lines in total. Subcellular localization of eDHFR-YFP in the cell lines was verified with fluorescence microscopy.
Cytotoxicity experiments were performed as follows: wild-type IMR5 cells as well as those expressing eDHFR-YFP localized to the DNA, nucleus, and cytoplasm were treated with various concentrations of ^211At-PAB-TMP for 72 hours. The survival fraction for each treatment condition was measured with luminescent cell viability assay.
The resulting survival vs. dose curves were analyzed to determine effective concentrations for 50% reduction in cell viability (EC50). See, FIGS. 16A-16C. […] See, FIGS. 16A-16C. […] 6; 20(7): 1752-1755.

eDHFR [3] = target: T1, eDHFR; assay type: cell-based; details: for affinity for eDHFR binding in cells: HCT116 cells, non-radiolabeled, vs para-benzyl-iodo-TMP; for EC50: read-out: EC50 for eDHFR binding, HCT-116 cells, tsLuc-DD-DHFR, compounds not radiolabeled
Serum stability in FBS = assay type: in vitro ADME; details: non-radioactive compound, FBS, 37 °C, 72 h
Procedure: In vitro serum stability of was performed by adding the [^131I]mI-TMP (50 μL, 1.85 MBq) to fetal bovine serum (500 μL). The mixture was then incubated in a ThermoMixer (800 rpm) at 37 °C, and deiodination was analyzed by radio-TLC (10% NH40Ac:MeOH=3:7) at 0, 24, and 72 h. In this condition, free I-131 moved to solvent front whereas intact [^131I]I-TMP remained at the origin.

eDHFR [4] = target: T1, eDHFR; assay: Differential scanning fluorimetry (thermal shift assay); assay type: binding; details: 0.1 mg/mL protein, 10 mM stock compound, 20-95 °C ramp
Procedure: Purified protein is diluted to 0.1 mg/mL protein in 500 μL in mild buffer, 25 mM HEPES pH=7.5, 200-500 mM NaCl, DTT. 17 μL of the 0.1 mg/mL protein sample is aliquoted into an opaque white 384 well PCR plate. Then 2 μL of stabilizing additive or 1 μL additive and 1 μL of concentrated drug (10 mM TMP or 10 mM cold mI-TMP or vehicle, plus 1 μL of 1×SYPRO Orange dye was added and the total well volume is 20 μL. The plate is sealed with clear optical cover, protect it from light with foil, and let it incubate for 5 minutes. Then the plate is centrifuged at 3,600×g for 2 minutes. The plate is analyzed on RT-PCR machine using a temperature-ramp method that ranges from 20-95 °C.

Molecule: COc1cc(Cc2cnc(N)nc2N)cc(OC)c1OC [TMP, trimethoprim]
- cytotoxicity at the lowest TMP concentration (I45 and SKOV3 cells; 40 μM, all cell types): non-toxic
- cytotoxicity from non-radiolabeled TMP in cells expressing membrane-bound eDHFR-YFP (I45 and SKOV3 cells; 72 h): higher cytotoxicity

Molecule: COc1cc(Cc2cnc(N)nc2N)cc([125I])c1OC [[^125I]mI-TMP, 5-(3-iodo-4,5-dimethoxybenzyl)pyrimidine-2,4-diamine]
- uptake of the radiotracer in eDHFR+ cells relative to WT cells (eDHFR [1]): ~ 50 fold and ~ 30 fold
- Kd (eDHFR-YFP; I45 cells): 0.65 ± 0.11 nM
- Kd (eDHFR-YFP; SKOV3 cells): 0.13 ± 0.17 nM

Molecule: [131I-].[Na+] [[^131I]I—Na, reference compound]
- cytotoxic effect / cell viability (OVCAR8-eDHFR-Luc cells): showed viability and significant growth

Molecule: COc1cc(Cc2cnc(N)nc2N)cc([211At])c1OC [[^211At]At-TMP]
- in vitro stability in aqueous media [2]: stability of [^211At]TMP in aqueous media for up to 6 hours

Molecule: COc1cc(Cc2cnc(N)nc2N)cc(OC)c1OCc1ccc([211At])cc1 [^211At-PAB-TMP, ^211At-para-astatobenzyl-trimethoprim]
- cytotoxicity by eDHFR-YFP subcellular location (IMR5 cells; IMR5 cells, 72 hours, luminescent viability): Higher cytotoxicity was seen with increasing proximity to DNA, resulting in significantly lower EC50 values; also recorded: highest in the IMR5 cells expressing DNA-bound eDHFR-YFP, followed by nuclear and cytoplasmic eDHFR-YFP

Molecule: O=C1NCCn2c(-c3ccc([211At])cc3)nc3cccc1c32 [^211At-PTT, reference compound]
- difference in cytotoxicity among the eDHFR IMR5 cells (IMR5 cells; positive control): no difference in cellular toxicity; also recorded: did not result in difference in cytotoxicity among the IMR5 cells

Molecule: COc1cccc2c1C(=O)c1c(O)c3c(c(O)c1C2=O)C[C@@](O)(C(=O)CO)C[C@@H]3O[C@H]1C[C@H](N)[C@H](O)[C@H](C)O1 [doxorubicin, reference compound]
- cytotoxicity of doxorubicin, wild-type vs eDHFR-YFP-expressing cells (I45 and SKOV3 cells; 72 h, 10 nM-1 μM): comparable cytotoxicity; also recorded: comparable chemosensitivity

Molecule: COc1cc(Cc2cnc(N)nc2N)cc(Br)c1OC [mBr-TMP]
- affinity for eDHFR binding in cells (eDHFR [3]): higher affinity for eDHFR binding in cells than the para-benzyl-iodo-TMP
- EC50 (eDHFR [3]): 5 nM

Molecule: COc1cc(Cc2cnc(N)nc2N)cc(I)c1OC [mI-TMP, 5-(3-iodo-4,5-dimethoxybenzyl)pyrimidine-2,4-diamine]
- affinity for eDHFR binding in cells (eDHFR [3]): higher affinity for eDHFR binding in cells than the para-benzyl-iodo-TMP
- EC50 (eDHFR [3]): 5 nM
- stability in FBS by LCMS (Serum stability in FBS): confirmed the stability of TMP-I (3a) in FBS
- stabilization of eDHFR in thermal shift assay (DSF) (eDHFR [4]): stabilizes eDHFR as TMP
- stabilization of eDHFR in thermal shift assay (DSF) (eDHFR [4]; listed as TMP-I (3b)): strongly stabilizes eDHFR, similar to TMP

Molecule: ^211At-para-astatobenzyl-trimethoprim [^211At-PAB-TMP]
- killing of eDHFR expressing neuroblastoma cells (IMR5 cells): enhanced killing of eDHFR expressing neuroblastoma cells
